Laboratory results published in patent US20260041679A1, “METHOD OF TREATING HYPERTENSION WITH THE ALDOSTERONE SYNTHASE INHIBITOR BAXDROSTAT” (CINCOR PHARMA, INC., priority 2022, published 2026).
Like-named read-outs stand apart in the source and are kept apart here. Marks after values point to notes of the source that are not given here.

What was measured:
[1] = Pharmacokinetics in subjects with varying degrees of renal function (Example 4); format: in vivo, human; conditions: for half-life / Tmax / AUC(0-inf) / AUC(0-t) / Cmax / Vd/F: human, plasma, oral, 10 mg; for AUC(0-inf): read-out: AUC0-inf, mean (SD); for AUC(0-t): read-out: AUC0-last, mean (SD); for Cmax: read-out: Cmax, mean (SD); for Vd/F: read-out: Vz/F, mean (SD)
Method: This phase 1, open-label, single-dose, parallel-group study was designed in accordance with the FDA guidance for the design and analysis of studies that assess the influence of impaired renal function on PK. Subjects were enrolled into three renal function groups defined based on eGFR calculated using the Chronic Kidney Disease Epidemiology Collaboration equation as follows: […]
Control(normal renal function or mild renal impairment:eGFR≥60 mL/min) • Moderate to severe renal impairment (eGFR 15 to 59 mL/min) • Kidney failure (eGFR<15 mL/min, including subjects on dialysis)
All subjects received a single 10 mg dose of baxdrostat in an open-label manner. […] All subjects were required to fast for a minimum of 10 hours prior to baxdrostat administration. They were then dosed at 8:00 AM (±2 hours) with two 5 mg tablets administered with approximately 240 mL of water. Subjects continued fasting for a minimum of 4 hours after dosing. No other medications were permitted within 2 hours prior to dosing and for 2 hours after dosing with baxdrostat. Subjects on dialysis received the study drug on a non-dialysis day. Blood and urine sample collection for PK analysis continued for 7 days and was proceeded by a follow-up phone call 3±1 days after clinic discharge.
Plasma and urine samples were analyzed to measure concentrations of baxdrostat and its primary metabolite (baxdrostat-M) using a validated LC-MS/MS method. “Baxdrostat-M” as used herein refers a compound having the following structure:
Blood and urine samples were collected prior to and after dosing for measurement of plasma and urine baxdrostat and baxdrostat-M concentrations to characterize maximum observed plasma concentration (Cmax), time to Cmax (Tmax), AUC0-last, and AUC0-inf for baxdrostat and baxdrostat-M. The t1/2, CL/F, and V/F were calculated for plasma baxdrostat only. Urine PK parameters included the cumulative amount of baxdrostat and baxdrostat-M excreted in urine (Ae), renal clearance (CLR) of baxdrostat and baxdrostat-M, and fraction of dose excreted renally (Fe) for baxdrostat.

[2] = Plasma PK of baxdrostat and baxdrostat-M in the metformin crossover study (Example 6A); format: in vivo, human; conditions: single 10-mg dose of baxdrostat
Method: This study was designed as a phase 1, randomized, open-label, 2-period, crossover trial. Each subject participated in a screening period of up to 26 days followed by 2 inpatient treatment periods and a follow-up phone call. […] Plasma samples were extracted by protein precipitation with methanol, followed by analysis by LC-MS/MS with ESI(+) and MRM. Reversed-phase chromatographic separation with a mobile phase gradient of 20% to 90% was utilized, and total run time was approximately 5 minutes. […] PK parameters were calculated using noncompartmental methods with SAS software, version 9.4 (SAS Institute). […] Tmax; […] AUC0-t; AUC0-inf, AUC0-inf extrapolated; λz; and t1/2. Plasma AUC0-72 was assessed only for baxdrostat and baxdrostat-M. […] Urine PK parameters included Ae, renal clearance (calculated as Ae/AUC), and the fraction of dose excreted renally.

aldosterone synthase = molecular target: T1, aldosterone synthase (Homo sapiens, UniProt P19099); test: Study 121: pharmacodynamics, serum and 24-hour urine aldosterone, plasma renin activity, serum cortisol; format: in vivo
T1 construct: Pharmacodynamic measurements included plasma aldosterone, cortisol, and electrolytes; endogenous in cells; host or cells: human subjects in vivo (healthy volunteers; resistant hypertension patients)
T1 sequence (P19099 25-503): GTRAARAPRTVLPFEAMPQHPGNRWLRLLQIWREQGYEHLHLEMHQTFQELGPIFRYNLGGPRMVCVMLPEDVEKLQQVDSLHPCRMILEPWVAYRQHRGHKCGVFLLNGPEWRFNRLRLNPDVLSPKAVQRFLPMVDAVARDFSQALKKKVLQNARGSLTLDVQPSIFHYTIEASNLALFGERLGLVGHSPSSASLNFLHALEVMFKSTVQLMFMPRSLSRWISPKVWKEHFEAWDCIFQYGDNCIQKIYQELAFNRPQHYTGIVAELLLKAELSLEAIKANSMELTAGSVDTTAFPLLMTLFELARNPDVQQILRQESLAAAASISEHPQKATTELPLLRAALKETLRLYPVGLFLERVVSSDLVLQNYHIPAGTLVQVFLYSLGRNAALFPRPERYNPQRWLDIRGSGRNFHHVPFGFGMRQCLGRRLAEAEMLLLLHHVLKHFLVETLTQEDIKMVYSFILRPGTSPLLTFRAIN
Excerpt: Blood and urine samples were collected for determination of the pharmacodynamic parameters related to baxdrostat mechanism of aldosterone suppression. Serum concentrations of aldosterone, aldosterone excreted in 24-hour urine collections, plasma renin activity (PRA) and serum cortisol are summarized by dose and by study day as shown in FIGS. 3A-3D. […] These hormonal data provide strong biochemical evidence to support the mechanism by which baxdrostat's inhibition of aldosterone synthesis produces a significant impact on blood pressure levels without lowering serum cortisol levels.

[3] = control eGFR ≥60 mL/min, single 10 mg
[4] = kidney failure eGFR <15 mL/min, single 10 mg
[5] = moderate to severe renal impairment eGFR 15-59 mL/min, single 10 mg

CCC(=O)N[C@@H]1CCCc2c(-c3ccc4c(c3)CCC(=O)N4C)cncc21 [baxdrostat, (R)—N-(4-(1-methyl-2-oxo-1,2,3,4-tetrahydroquinolin-6-yl)-5,6,7,8-tetrahydroisoquinolin-8-yl) propionamide]
recovered unchanged in the urine ([1]; control and moderate to severe renal impairment groups): Approximately 12%
CL/F, mean (SD) [1, 3]: 3.06 (0.9) L/h
Fe (urine), mean (CV %) [1, 3]: 12.53 (38.1) %
half-life ([1]; across renal function groups, read-out: average half-life): 30 to 42 h
Tmax ([1]; all renal function groups, single 10 mg, read-out: median Tmax): ≤ 1.5 h
AUC(0-inf) [1, 3]: 3530 ng·h/mL
AUC(0-t) [1, 3]: 3380 ng·h/mL
Cmax [1, 3]: 108 ng/mL
Tmax ([1]; control eGFR ≥60 mL/min, single 10 mg, read-out: Tmax, mean (SD)): 2.1 h
Vd/F [1, 3]: 146 L
half-life ([1]; control eGFR ≥60 mL/min, single 10 mg, read-out: t1/2, mean (SD) (converted)): 35.6 h
AUC(0-inf) [1, 4]: 2660 ng·h/mL
AUC(0-t) [1, 4]: 2570 ng·h/mL
Cmax [1, 4]: 96 ng/mL
Tmax ([1]; kidney failure eGFR <15 mL/min, single 10 mg, read-out: Tmax, mean (SD)): 1.63 h
Vd/F [1, 4]: 200 L
AUC(0-inf) [1, 5]: 4340 ng·h/mL
AUC(0-t) [1, 5]: 4010 ng·h/mL
Cmax [1, 5]: 110 ng/mL
Tmax ([1]; moderate to severe renal impairment eGFR 15-59 mL/min, single 10 mg, read-out: Tmax, mean (SD)): 1.82 h
Vd/F [1, 5]: 142 L
half-life ([1]; moderate to severe renal impairment eGFR 15-59 mL/min, single 10 mg, read-out: t1/2, mean (SD) (converted)): 42.1 h
CL/F, mean (SD) [1, 4]: 5.07 (2.9) L/h
Fe (urine), mean (CV %) [1, 4]: 0.91 (60.7)* %
t1/2, mean (SD) [1, 4]: 29.70 (10.5) h
renal excretion ([1]; kidney failure group): minimal renal excretion
CL/F, mean (SD) [1, 5]: 2.60 (1.0) L/h
Fe (urine), mean (CV %) [1, 5]: 11.81 (26.0) %
effect of renal impairment on Cmax, AUC, half-life, apparent plasma clearance, renal clearance ([1]; pairwise comparisons versus control): no meaningful effect
AUC% extrapolated ([2]; human): 8.36%
AUC(0-t) ([2]; human, read-out: AUC0-24, Mean): 1660 ng·h/mL
AUC(0-t) ([2]; human, read-out: AUC0-72, GM): 2790 ng·h/mL
AUC(0-t) ([2]; human, read-out: AUC0-72, Mean): 2870 ng·h/mL
AUC(0-inf) ([2]; human, read-out: AUC0-inf, GM): 2920 ng·h/mL
AUC(0-inf) ([2]; human, read-out: AUC0-inf, Mean): 3030 ng·h/mL
Cmax ([2]; human, read-out: Cmax, GM): 117 ng/mL
Cmax ([2]; human, read-out: Cmax, Mean): 119 ng/mL
Tmax ([2]; human, read-out: Tmax, GM): 1.54 h
Tmax ([2]; human, read-out: Tmax, Mean): 1.68 h
AUC0-24, GM [2]: 1637.461 ng·h/mL
λz, GM [2]: 0.032 h⁻¹
λz, Mean [2]: 0.033 h⁻¹
urinary aldosterone excretion (aldosterone synthase; 24-hour urine): significantly reduced urinary aldosterone excretion
suppression of aldosterone and augmentation of renin activity, male vs female patients (aldosterone synthase; in vivo): comparable between male and female patients
plasma renin activity (PRA) (aldosterone synthase; rHTN patients): increased PRA several-fold
total serum cortisol (aldosterone synthase; rHTN patients): no reduction in total serum cortisol
